# Laboratory results from patent publication US8598208B2, “Pyridine derivatives as S1P1/EDG1 receptor modulators” (Actelion Pharmaceuticals Ltd., priority 2007, dated 2013).
# Biological target: recombinant human S1P1 receptor (Homo sapiens, UniProt P21453)
# Assay: GTPγS assay to determine EC50 values
# Format: biochemical
# Details: membrane preparations of CHO cells expressing recombinant human S1P1 receptor; pH 7.4; read-out: EC50 (agonistic activity, 35S-GTPγS binding)
# Description: GTPγS binding assays are performed in 96 well microtiter plates (Nunc, 442587) in a final volume of 200 μl, using membrane preparations of CHO cells expressing recombinant human S1P1 receptor. Assay conditions are 20 mM Hepes (Fluka, 54461), 100 mM NaCl (Fluka, 71378), 5 mM MgCl2 (Fluka, 63064), 0.1% BSA (Calbiochem, 126609), 1 μM GDP (Sigma, G-7127), 2.5% DMSO (Fluka, 41644), […] ^35S-GTPγS (Amersham Biosciences, SJ1320). The pH is 7.4. Test compounds are dissolved and diluted in 100% DMSO and pre-incubated at room temperature for 30 min in 150 μl of the above assay buffer, in the absence of ^35S-GTPγS. After addition of 50 μl of ^35S-GTPγS, the assay is incubated for 1 h at rt. The assay is terminated by transfer of the reaction mixture to a Multiscreen plate (Millipore, MAHFC1H60) using a cell harvester from Packard Biosciences, and the plates are washed with ice-cold 10 mM Na2HPO4/NaH2PO4 (70%/30%), dried, sealed at the bottom and, after addition of 25 μl MicroScint20 (Packard Biosciences, order#6013621), sealed on the top. Membrane-bound ^35S-GTPγS is measured with a TopCount from Packard Biosciences.
# EC50 is the concentration of agonist inducing 50% of the maximal specific ^35S-GTPγS binding. Specific binding is determined by subtracting non-specific binding from maximal binding. Maximal binding is the amount of cpm bound to the Multiscreen plate in the presence of 10 μM of S1P. Non-specific binding is the amount of binding in the absence of an agonist in the assay.
# recombinant human S1P1 receptor, sequence (P21453 whole entry): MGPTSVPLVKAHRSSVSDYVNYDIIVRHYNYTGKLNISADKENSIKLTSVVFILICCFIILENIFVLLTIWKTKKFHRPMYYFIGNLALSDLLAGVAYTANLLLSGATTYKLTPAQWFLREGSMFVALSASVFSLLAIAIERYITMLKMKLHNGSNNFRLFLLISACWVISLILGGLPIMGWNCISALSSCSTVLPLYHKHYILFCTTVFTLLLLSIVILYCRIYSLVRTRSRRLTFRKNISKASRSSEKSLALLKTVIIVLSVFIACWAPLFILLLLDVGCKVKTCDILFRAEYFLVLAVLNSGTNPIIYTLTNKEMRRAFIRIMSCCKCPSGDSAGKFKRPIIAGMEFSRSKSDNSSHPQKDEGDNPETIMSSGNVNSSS
row,EC50 [nM],Compound
1,5.2,CCc1cc(-c2noc(-c3cc(C)nc(CC)c3)n2)cc(C)n1 [Example 2]
2,2.4,CCCc1cc(-c2nc(-c3cc(C)nc(C)c3)no2)cc(C)n1 [Example 6]
3,0.4,Cc1cc(-c2noc(-c3cc(C)nc(CC(C)C)c3)n2)cc(C)n1 [Example 8]
4,0.9,CCNc1cc(-c2nc(-c3cc(C)nc(CC)c3)no2)cc(C)n1 [Example 29]
5,6.1,Cc1cc(-c2nc(-c3cnc(NC(C)C)c(C)c3)no2)cc(CC(C)C)n1 [Example 39]
6,0.4,CCc1cc(-c2noc(-c3cc(C)nc(C(CC)CC)c3)n2)cc(C)n1 [Example 45]
7,1,CCc1cc(-c2nc(-c3cc(C)nc(C)c3)no2)cc(CC(C)C)n1 [Example 61]
8,1.4,CCc1cc(-c2noc(-c3cc(CC)nc(CC(C)C)c3)n2)cc(C)n1 [Example 62]
9,0.5,CCC(CC)c1cc(-c2nc(-c3cc(C)nc(C)c3)no2)cc(C)n1 [Example 65]
10,0.3,Cc1cc(-c2noc(-c3cc(C)nc(C4CCCC4)c3)n2)cc(C)n1 [Example 66]
11,2.1,CCc1cc(-c2noc(-c3cc(OC)nc(C4CCCC4)c3)n2)cc(C)n1 [Example 117]

# Tested on: circulating lymphocytes
# Assay: Assessment of in vivo efficacy: circulating lymphocytes after oral administration
# Design: species or system normotensive male Wistar rats
# Details: 6 h after oral administration of 3 mg/kg, male Wistar rats, compared to vehicle group; mean ± SEM
# Description: The efficacy of the compounds of Formula (I) is assessed by measuring the circulating lymphocytes after oral administration of 3 to 30 mg/kg of a compound of Formula (I) to normotensive male Wistar rats. The animals are housed in climate-controlled conditions with a 12 h-light/dark cycle, and have free access to normal rat chow and drinking water. Blood is collected before and 3, 6 and 24 h after drug administration. Full blood is subjected to hematology using Advia Hematology system (Bayer Diagnostics, Zürich, Switzerland).
# All data are presented as mean±SEM. Statistical analyses are performed by analysis of variance (ANOVA) using Statistica (StatSoft) and the Student-Newman-Keuls procedure for multiple comparisons. The null hypothesis is rejected when p≦0.05.
row,Compound,Lymphocyte counts
1,CCCc1cc(-c2nc(-c3cc(C)nc(C)c3)no2)cc(C)n1 [Example 6],−68% ± 3%^
